Columns and labels:
[1] = system: r(CUG)4 (RNA, repeat) CUGCUGCUGCUG; assay: ITC; settings: single binding model; representative curve K = (1.06 ± 0.30) ×10^7 M^-1
[2] = system: CTG palindrome d(CTGCTGCAGCAG) (DNA, duplex) CTGCTGCAGCAG; assay: ITC; settings: single binding model; representative curve K = (2.1 ± 0.3) ×10^6 M^-1

KD [1]: 99 ± 25 nM | KD [2]: 485 ± 73 nM
Compound: N=C(N)c1ccc(-c2ccc(-c3ccc(C(=N)N)cc3)o2)cc1

Source: paper PMC6343479 (2018)
